The test system of assay [1] is soybean (GLXMA). Kind of assay: Test H preemergence mixture test (Colby). Particulars: for Plant response rating, Obsd., GLXMA: 21 d after treatment, scale 0 to 100; for GLXMA Obsd.: applied alone, 21 d, mean of three replicates, scale 0-100. Type of assay: in vivo, Glycine max. The source says:
Colby's Equation was used to determine the herbicidal effects expected from the mixtures. Colby's Equation (Colby, S. R. “Calculating Synergistic and Antagonistic Responses of Herbicide Combinations,” Weeds, 15(1), pp 20-22 (1967)) calculates the expected additive effect of herbicidal mixtures and for two active ingredients is of the form: Pa+b=Pa+Pb−(PaPb/100)
where • Pa+b is the percentage effect of the mixture expected from additive contribution of the individual components: • Pa is the observed percentage effect of the first active ingredient at the same use rate as in the mixture, and • Pb is the observed percentage effect of the second active ingredient at the same use rate as in the mixture. In the following Tables, rates are shown in grams of active ingredient per hectare (g a.i./ha); “Obsd.” is the observed effect. “Exp.” is the expected effect calculated from Colby's Equation.
This test evaluated the effect of mixtures of compound 80 with several commercial herbicides on four plant species. Seeds of plant species selected from corn (ZEAMD, Zea mays), soybean (GLXMA, Glycine max), waterhemp (common waterhemp, AMATA, Amaranthus rudis), and giant foxtail (SETFA, Setaria faberii) were planted into a silt loam soil and treated preemergence with test chemicals formulated in a non-phytotoxic solvent mixture which included a surfactant and applied using a volume of 281 L/ha. Each treatment was replicated three times. Treated plants and controls were maintained in a greenhouse using supplemental lighting to maintain a photoperiod of about 16 h; daytime and nighttime temperatures were about 24-30° C. and 19-21° C., respectively. Nutrients were applied using a balanced fertilizer applied through the watering system. At 21 d after treatment, all species were compared to controls and visually evaluated. Plant response ratings were calculated as the means of the three replicates, are summarized in Tables H1 through H5, and are based on a scale of 0 to 100 where 0 is no effect and 100 is complete control. A dash (-) response means no test result. The Expected (Exp.) results were calculated using Colby's Equation as described for Test G above.

The subject of assay [2] is transplanted japonica rice (ORYSA). The experiment in a line: Test G paddy mixture test (Colby). The format is in vivo, Oryza sativa. Particulars: applied alone, 14 d; for ORYSA Obsd.: scale 0-100; for ORYSA Obsd. plant response rating (scale 0 to 100): flooded. The procedure:
(§1) Seeds of small-flower umbrella […], Cyperus difformis) and […], Heteranthera limosa) were sown on the soil surface in two separate quadrants of 11-cm (4-inch) tubs filled with steam pasteurized Tama soil. Simultaneously, plantings of […], Echinochloa crus-galli) and transplanted japonica rice (ORYSA, Oryza sativa) were established in separate “plug” flats. […] Herbicide application timing was targeted at the 2.0 to 2.5 leaf stage and the plants were treated with test chemicals formulated in a non-phytotoxic solvent. Treated plants and controls were maintained in a greenhouse for 14 d, after which time all species were compared to controls and visually evaluated. Plant response ratings are summarized in Tables G1 through G12, and are based on a scale of 0 to 100 where 0 is no effect and 100 is complete control. A dash (-) response means no test result. Colby's Equation was used to determine the herbicidal effects expected from the mixtures. Colby's Equation (Colby, S. R. “Calculating Synergistic and Antagonistic Responses of Herbicide Combinations,” Weeds, 15(1), pp 20-22 (1967)) calculates the expected additive effect of herbicidal mixtures and for two active ingredients is of the form: Pa+b=Pa+Pb-(PaPb/100) where • Pa+b is the percentage effect of the mixture expected from additive contribution of the individual components: • Pa is the observed percentage effect of the first active ingredient at the same use rate as in the mixture, and • Pb is the observed percentage effect of the second active ingredient at the same use rate as in the mixture. In the following Tables, rates are shown in grams of active ingredient per […]); “Obsd.” is the observed effect. “Exp.” is the expected effect calculated from Colby's Equation.

The test system of assay [3] is small-flower umbrella sedge (CYPDI). The experiment in a line: Test G paddy mixture test (Colby). Type of assay: in vivo, Cyperus difformis. To be noted: applied alone, 14 d; for CYPDI Obsd.: scale 0-100; for CYPDI Obsd. plant response rating (scale 0 to 100): flooded. As for the experimental part:
as §1

The subject of assay [4] is barnyardgrass (ECHCG). Kind of assay: Test G paddy mixture test (Colby). The format is in vivo, Echinochloa crus-galli. To be noted: applied alone, 14 d; for ECHCG Obsd.: scale 0-100; for ECHCG Obsd. plant response rating (scale 0 to 100): flooded. As for the experimental part:
as §1

SMILES strings stand for the structures.

With `O=C1NCC(c2ccc(C(F)(F)F)cc2)C1C(=O)Nc1cccc(F)c1F` (stereo not shown) [Compound 80, N-(2,3-difluorophenyl)-2-oxo-4-[4-(trifluoromethyl)phenyl]-3-pyrrolidinecarboxamide], the “Plant response rating, Obsd., GLXMA” value in assay [1] (Cmpd 80 alone 62 g a.i./ha) is 12; in assay [1] (Cmpd 80 alone 125 g a.i./ha), 0. In addition, the results for the “GLXMA Obsd.” value in assay [1] (62 g a.i./ha) and in assay [1] (125 g a.i./ha) were 12 and 0, respectively.

Take `O=C1NC[C@H](c2cccc(C(F)(F)F)c2)[C@H]1C(=O)Nc1ccccc1F` [Compound 204, (3R,4S)—N-(2-fluorophenyl)-2-oxo-4-[3-(trifluoromethyl)phenyl]-3-pyrrolidinecarboxamide]: the “ORYSA Obsd.” value in assay [2] (125 g a.i./ha) and in assay [2] (500 g a.i./ha) was 0 throughout. Further, the “ORYSA Obsd. plant response rating (scale 0 to 100)” value in assay [2] (125 g a.i./ha) and in assay [2] (500 g a.i./ha) was 0 each time. In addition, the “CYPDI Obsd.” value in assay [3] (125 g a.i./ha) and in assay [3] (500 g a.i./ha) was 0 in each case. Also, the “CYPDI Obsd. plant response rating (scale 0 to 100)” value in assay [3] (125 g a.i./ha) and in assay [3] (500 g a.i./ha) was 0 in each case. The results for the “ECHCG Obsd.” value in assay [4] (125 g a.i./ha) and in assay [4] (500 g a.i./ha) were 65 and 90, respectively. Moreover, the “ECHCG Obsd. plant response rating (scale 0 to 100)” value was 65 in assay [4] (125 g a.i./ha) and 90 in assay [4] (500 g a.i./ha).

The record behind these values is patent US10294202B2, “Pyrrolidinones as herbicides” (FMC Corporation, priority 2013, dated 2019).
